Values after ≈ are worked out from the molar mass of the structure shown. Like-named read-outs stand apart in the source and are kept apart here. Values belong to the compound of their own block, whether it stands above or below them.
Columns and labels:
[1] = Determination of kinetic solubility; type: physicochemical; conditions: aqueous buffer, kinetic from dmso stock, 2.5% DMSO, room temperature, read-out: C eff
Method: Compounds, provided as 20 mM or 10 mM stock solutions in 100% DMSO, are diluted 1:40 in aqueous buffer to a concentration of 0.5 mM or 0.25 mM, respectively, with 2.5% residual DMSO. The pH 6.5 buffer consists of 0.05 M 3-(N-morpholino)-2-hydroxypropanesulfonic acid (MOPSO) adjusted to the target pH with NaOH. Buffers at pH 5 and pH 3 are prepared from commercially available concentrates (Titrisol®, Merck). The samples are then incubated at room temperature for 6 hours with gentle shaking followed by vacuum filtration through a MultiScreen DV plate (Durapore hydrophilic PVDF membrane, 0.65 μm pore size, Millipore). The filtrates are adjusted to 20% acetonitrile and analyzed by UV spectroscopy to obtain the absorption maximum and the corresponding wavelength. The concentration of compound in the filtrate is calculated based on the linear part of a standard curve constructed using 3 to 5 known concentrations of each sample in aqueous buffer supplemented with 20% acetonitrile.

[2] = Pharmacokinetic studies in xenografted mice (plasma and tumor); type: in vivo, CD-1 Nu/Nu female mice; conditions: female, CD-1 Nu/Nu, mouse, iv
Method: CD-1 Nu/Nu female mice implanted with the human colon carcinoma SW480 cell line are treated with either the “Parent Drug”, i.e. 3-(4-{1-[2-(4-amino-phenyl)-2-oxo-ethyl]-1H-benzoimidazol-2-yl}-furazan-3-ylamino)-propionitrile, or “Example 1” i.e. S-2,6-diamino-hexanoic acid [4-(2-{2-[4-(2-cyano-ethylamino)-furazan-3-yl]-benzoimidazol-1-yl}-acetyl)-phenyl]-amide hydrochloride salt, when the tumor size reached approximately 150 mm^3+/−10%. Mice (33 per compound) are treated i.v. […]
After the 4th application (4th week), three mice/sampling point from the “Parent Drug” and “Example 1” groups are culled before and 5 min, 15 min, 30 min, 45 min, 1 h, 1.5 h, 2 h, 4 h, 6 h and 24 h post-administration. Blood is collected by cardiac puncture into K3EDTA tubes kept on ice until centrifugation at 4° C. Plasma is stored at −20° C. At necropsy, tumors are removed and weighed. Tumors are stored at −20° C. Plasma and tumor samples are analyzed by LC-MS/MS. Pharmacokinetic parameters are calculated using WinNonLin 5.2. All results for “Example 1” represent the free base.

[3] = test system: SW480 colorectal cancer xenografts; assay: In vivo efficacy studies, SW480 xenografts; set-up: species or system athymic nude mice; conditions: for final T/C (ratio of tumor volume in the treatment group vs. the control group) at day 24: once weekly i.v. for 24 days, prodrug 21 mg/kg, parent drug 8 mg/kg; for final T/C (day 24): three times per week (d1/4/7) i.v. for 24 days, prodrug 7.1 mg/kg
Excerpt: (§1) Mice bearing SW480 colorectal cancer xenografts are used to test and compare the anti-cancer efficacy and tolerability of intravenous (i.v.) application of the prodrug according to Example 1 (S-2,6-diamino-hexanoic acid [4-(2-{2-[4-(2-cyano-ethylamino)-furazan-3-yl]-benzoimidazol-1-yl}-acetyl)-phenyl]-amide hydrochloride salt) and the corresponding parent drug” (3-(4-{1-[2-(4-amino-phenyl)-2-oxo-ethyl]-1H-benzoimidazol-2-yl}-furazan-3-ylamino)-propionitrile) at the maximum tolerated dose level (MTD). Prior to the efficacy experiment, a determination of the MTD of each compound administered once weekly is performed in non-tumor-bearing nude mice of the same strain. Administration of 24.5 mg/kg prodrug and 10 mg/kg parent drug, given as an i.v. bolus once weekly, results in body weight losses >10% in a few animals in both groups. The MTDs in tumor-bearing mice are, therefore, determined to be 15-20% lower, resulting in doses of 21 mg/kg prodrug and 8 mg/kg parent drug. Human colorectal carcinoma cells (SW480) are injected subcutaneously (4×10^6 cells) into the back of 4-8-week old athymic nude mice. Tumor volumes are determined from calliper measurements of tumor length (L) and width (1) according to the formula (L×l^2)/2. Tumors are allowed to expand to a volume of 200 mm^3 (±10%) before treatment start. The prodrug and parent drug are administered i.v. for 24 days, either once per week at 21 mg/kg and 8 mg/kg, respectively, or three times a week (d1/4/7) at 7.1 mg/kg and 2.7 mg/kg, respectively (both schedules represent the same total weekly dose). Tumor volume and body weight are monitored daily.
(§2) FIG. 1 provides a graphical representation of the changes in mean tumor volume during the time of treatment when using the administration schedule, wherein prodrug and parent drug are given once weekly for 24 days at doses of 21 mg/kg and 8 mg/kg, respectively, with appropriate vehicle controls (5 ml/kg) administered with the same schedule. Data points represent mean values+/−SEM (n=7-8 animals, each animal was engrafted with one tumor).
as §2, with “2” for “1”, “three times per week (d1/4/7)” for “once weekly”, “7.1” for “21”, “2.7 mg/kg in 5 ml/kg,” for “8 mg/kg,”, “points again” for “points”

[4] = Determination of the maximum tolerated dose (MTD), once weekly i.v.; conditions: athymic nude, mouse, in vivo, iv
Excerpt: as §1, with “The prodrug and parent drug are administered i.v. for 24 days, either once per week at 21 mg/kg and 8 mg/kg, respectively, or three times a week (d1/4/7) at 7.1 mg/kg and 2.7 mg/kg, respectively (both schedules represent the same total weekly dose).” left out

[5] = Prodrug-drug conversion in full blood; type: in vitro ADME; conditions: fresh heparinised rat blood, 37° C., after 120 min
Method: 495 μL fresh heparinised rat blood are spiked with 5 μL of a 1 mg/mL DMSO solution of the analyte (prodrug) at 37° C. After t=0, 5, 15, 30, 60 and 120 min, a blood sample is taken and precipitated. Therefore to 50 μL blood sample or spiked blood sample 150 μL acetonitrile containing an internal standard are added. Samples are centrifuged and 20 μl of the supernatant are injected into the HPLC system for determination of compound concentration (prodrug and parent drug) by LC-MS/MS analysis.
For calibration, a standard curve is prepared with a compound concentration range from 10 to 10000 ng/mL in fresh heparine rat blood. Therefore the blood is spiked (2 μL DMSO solution in 198 μL fresh rat blood) and precipitated like unknown samples.

[6] = In vivo pharmacokinetic studies, intravenous administration, Vena saphena screening method; set-up: species or system male NMRI mice; conditions: mice, i.v. administration of the prodrug
Method: The compounds are evaluated in vivo after intravenous administration to male NMRI mice using the Vena saphena screening method.
A dose of 1 mg/kg of the compound is administered i.v. as a bolus (5 mL/kg). Serial blood samples (40 μL) are drawn after puncture of the saphenous vein and collected in a sodium heparin coated capillary tube from two mice per time point at pre-dose, 5 min, 15 min, 30 min, 45 min, 1 h, 2 h, 4 h, 6 h, 8 h and 24 h after intravenous administration.
Blood samples are weighed and the blood quenched in 300 μl stop solution consisting of acetonitrile/water (80:20) and an internal standard.
Blood concentrations of the compound (prodrug) and its parent drug are determined using LC-MS/MS analysis with a limit of quantification of 4 to 40 ng/mL.
Mean arithmetic plasma/blood concentrations are calculated using BLQ (below limit of quantitation)−value of zero if necessary. • Mean AUCinfIV [ng*h/mL] The area under the blood concentration-time curve for a mean normalized (1 mg/kg) iv application from time zero to the last sampling time with a concentration above the limit of quantification. • Mean AUCinfIV is calculated according to the linear trapezoidal rule.
In a study mice are intravenously treated with prodrugs according to the invention, followed by determination of the blood concentration of the drug. […]

Structure (SMILES): N#CCCNc1nonc1-c1nc2ccccc2n1CC(=O)c1ccc(NC(=O)[C@@H](N)CCCCN)cc1 [Example 1, S-2,6-diamino-hexanoic acid [4-(2-{2-[4-(2-cyano-ethylamino)-furazan-3-yl]-benzoimidazol-1-yl}-acetyl)-phenyl]-amide]
solubility kinetic at 6 h ([1]; pH 3.0 buffer): > 200 µM
solubility kinetic at 6 h ([1]; pH 5.0 buffer): > 200 µM
solubility kinetic at 6 h ([1]; pH 6.5 buffer): 190 µM (≈ 98 µg/mL)
AUC(0-t) ([2]; plasma, analyte Example 1 (free base), after i.v. 19.6 mg Example 1, xenografted mice, read-out: AUClast of Example 1 in plasma): 21100 ng·h/mL
Cmax ([2]; plasma, analyte Example 1 (free base), after i.v. 19.6 mg Example 1, xenografted mice, read-out: Cmax of Example 1 in plasma): 81900 ng/mL
half-life ([2]; plasma, analyte Example 1 (free base), after i.v. 19.6 mg Example 1, xenografted mice, read-out: T1/2 of Example 1 in plasma (converted)): 5.5 h
AUC(0-t) ([2]; tumor, analyte Example 1 (free base), after i.v. 19.6 mg Example 1, xenografted mice, read-out: AUClast of Example 1 in tumors): 29300 ng·h/mL
Cmax ([2]; tumor, analyte Example 1 (free base), after i.v. 19.6 mg Example 1, xenografted mice, read-out: Cmax of Example 1 in tumors): 6010 ng/mL
half-life ([2]; tumor, analyte Example 1 (free base), after i.v. 19.6 mg Example 1, xenografted mice, read-out: T1/2 of Example 1 in tumors (converted)): 9.6 h
final T/C (ratio of tumor volume in the treatment group vs. the control group) at day 24 [3]: 34%
final T/C (day 24) ([3]; parent drug 2.7 mg/kg): 26%
MTD [4]: 21 mg/kg

Structure (SMILES): C[C@H](N)C(=O)Nc1ccc(C(=O)Cn2c(-c3nonc3NCCC#N)nc3ccccc32)cc1 [Example 2]
solubility kinetic at 6 h ([1]; pH 3.0 buffer): > 200 µM
solubility kinetic at 6 h ([1]; pH 5.0 buffer): 55 µM (≈ 25.2 µg/mL)
solubility kinetic at 6 h ([1]; pH 6.5 buffer): 91 µM (≈ 41.7 µg/mL)

Structure (SMILES): N#CCCNc1nonc1-c1nc2ccccc2n1CC(=O)c1ccc(NC(=O)CN)cc1 [Example 3]
solubility kinetic at 6 h ([1]; pH 3.0 buffer): > 200 µM
solubility kinetic at 6 h ([1]; pH 5.0 buffer): 71 µM (≈ 31.6 µg/mL)
solubility kinetic at 6 h ([1]; pH 6.5 buffer): 106 µM (≈ 47.1 µg/mL)

Structure (SMILES): CC(C)C[C@H](N)C(=O)Nc1ccc(C(=O)Cn2c(-c3nonc3NCCC#N)nc3ccccc32)cc1 [Example 11]
solubility kinetic at 6 h ([1]; pH 3.0 buffer): 189 µM (≈ 94.6 µg/mL)
solubility kinetic at 6 h ([1]; pH 5.0 buffer): 37 µM (≈ 18.5 µg/mL)
solubility kinetic at 6 h ([1]; pH 6.5 buffer): 20 µM (≈ 10 µg/mL)

Structure (SMILES): N#CCCNc1nonc1-c1nc2ccccc2n1CC(=O)c1ccc(N)cc1 [Parent Drug, 3-(4-{1-[2-(4-Amino-phenyl)-2-oxo-ethyl]-1H-benzoimidazol-2-yl}-furazan-3-ylamino)-propionitrile, reference compound]
solubility kinetic at 6 h ([1]; pH 3.0 buffer): < 10 µM
solubility kinetic at 6 h ([1]; pH 5.0 buffer): < 10 µM
solubility kinetic at 6 h ([1]; pH 6.5 buffer): < 10 µM
Cmax ([2]; plasma, after i.v. 8 mg/kg Parent Drug, 4th application, xenografted mice, read-out: Cmax of Parent Drug in plasma): 11000 ng/mL
AUC(0-t) ([2]; plasma, after i.v. 8 mg/kg Parent Drug, xenografted mice, read-out: AUClast of Parent Drug in plasma): 44800 ng·h/mL
half-life ([2]; plasma, after i.v. 8 mg/kg Parent Drug, xenografted mice, read-out: T1/2 of Parent Drug in plasma (converted)): 3.2 h
Cmax ([2]; tumor, after i.v. 8 mg/kg Parent Drug, 4th application, xenografted mice, read-out: Cmax of Parent Drug in tumors): 3210 ng/mL
AUC(0-t) ([2]; tumor, after i.v. 8 mg/kg Parent Drug, xenografted mice, read-out: AUClast of Parent Drug in tumors): 45500 ng·h/mL
half-life ([2]; tumor, after i.v. 8 mg/kg Parent Drug, xenografted mice, read-out: T1/2 of Parent Drug in tumors (converted)): 5.4 h
final T/C (ratio of tumor volume in the treatment group vs. the control group) at day 24 [3]: 45%
final T/C (day 24) ([3]; parent drug 2.7 mg/kg): 54%
death of animals during treatment ([3]; three times per week i.v., parent drug 2.7 mg/kg): one animal in the parent drug-group (three times per week treatment) died at day 10
MTD ([4]; i.v. once weekly, set 15-20% lower than dose causing body weight loss, read-out: MTD in tumor-bearing mice): 8 mg/kg

The next lines start with the values.

conversion of prodrug into its parent drug [5]: completely converted
Structure (SMILES): NCC(=O)Nc1ccc(C(=O)Cn2c(-c3nonc3N)nc3ccccc32)cc1 [Example 12, 2-Amino-N-(4-{2-[2-(4-amino-furazan-3-yl)-benzoimidazol-1-yl]-acetyl}-phenyl)-acetamide]

conversion of prodrug into its parent drug [5]: approximately 74%
Structure (SMILES): NCC(=O)Nc1nonc1-c1nc2ccccc2n1CC(=O)c1ccc(N)cc1 [Example 13, 2-Amino-N-(4-{1-[2-(4-amino-phenyl)-2-oxo-ethyl]-1H-benzoimidazol-2-yl}-furazan-3-yl)-acetamide]

levels of the parent drug after intravenous administration [6]: no significant levels
Structure (SMILES): CN(C)/C=N/c1ccc(C(=O)Cn2c(-c3nonc3NCCC#N)nc3ccccc32)cc1 [Example 14, N′-[4-(2-{2-[4-(2-Cyano-ethylamino)-furazan-3-yl]-benzoimidazol-1-yl}-acetyl)-phenyl]-N,N-dimethyl-formamidine]

levels of the parent drug after intravenous administration [6]: no significant levels
Structure (SMILES): N#CCCNc1nonc1-c1nc2ccccc2n1CC(=O)c1ccc(NS(=O)(=O)O)cc1 [Example 15, [4-(2-{2-[4-(2-Cyano-ethylamino)-furazan-3-yl]-benzoimidazol-1-yl}-acetyl)-phenyl]-sulfamic acid]
